Data: ChEMBL document CHEMBL5104162, “Potent inhibitory activity of hydroxylated 2-benzylidene-3,4-dihydronaphthalen-1(2H)-ones on LPS-stimulated reactive oxygen species production in RAW 264.7 macrophages” (Bioorg Med Chem Lett, 2022)

Legend:
[1] = Cytotoxicity against mouse RAW264.7 cells assessed as cell viability at 10 uM by MTS assay relative to control
RAW264.7 = test: Inhibition of ROS production in LPS-induced mouse RAW264.7 cells; assay type: functional, cell-based

SMILES	viability at 10 µM [1]	IC50 (RAW264.7)
O=C1/C(=C/c2ccc(O)cc2)CCc2cc(O)ccc21	< 90%	
O=C1/C(=C/c2ccncc2)CCc2ccc(O)cc21	> 90%	2340 nM
O=C1/C(=C/c2ccccc2Br)CCc2cc(O)ccc21	> 90%	1070 nM
O=C1/C(=C/c2cccc(O)c2)CCc2c(O)cccc21	< 90%	
O=C1/C(=C/c2ccccc2)CCc2c(O)cccc21	< 90%	
O=C1/C(=C/c2ccc(O)cc2)CCc2ccc(O)cc21	< 90%	
O=C1/C(=C/c2ccc(Cl)cc2)CCc2cc(O)ccc21	> 90%	2480 nM
O=C1/C(=C/c2cccc(F)c2)CCc2ccc(O)cc21	> 90%	830 nM
O=C1/C(=C/c2ccc(F)cc2)CCc2cc(O)ccc21	> 90%	1370 nM
O=C1/C(=C/c2cccc(OC(F)(F)F)c2)CCc2cc(O)ccc21	> 90%	520 nM
O=C1/C(=C/c2ccc(Br)cc2)CCc2cc(O)ccc21	> 90%	1520 nM
O=C1/C(=C/c2ccccc2OC(F)(F)F)CCc2cc(O)ccc21	< 90%	
O=C1/C(=C/c2ccccc2Br)CCc2ccc(O)cc21	> 90%	500 nM
O=C1/C(=C/c2ccccc2C(F)(F)F)CCc2cc(O)ccc21	< 90%	
O=C1/C(=C/c2ccc(Br)cc2)CCc2ccc(O)cc21	> 90%	800 nM
O=C1/C(=C/c2cccc(C(F)(F)F)c2)CCc2c(O)cccc21	> 90%	1970 nM
O=C1/C(=C/c2cccc(OC(F)(F)F)c2)CCc2c(O)cccc21	< 90%	
O=C1/C(=C/c2ccc(C(F)(F)F)cc2)CCc2cc(O)ccc21	> 90%	3260 nM
O=C1/C(=C/c2ccccc2Cl)CCc2ccc(O)cc21	> 90%	270 nM
O=C1/C(=C/c2ccc(O)cc2)CCc2c(O)cccc21	< 90%	
O=C1/C(=C/c2cccnc2)CCc2ccc(O)cc21	> 90%	3040 nM
O=C1/C(=C/c2cccc(Br)c2)CCc2c(O)cccc21	> 90%	1700 nM

SMILES	viability at 10 µM [1]	IC50 (RAW264.7)
O=C1/C(=C/c2ccc(F)cc2)CCc2ccc(O)cc21	> 90%	840 nM
O=C1/C(=C/c2ccccc2Cl)CCc2c(O)cccc21	> 90%	1280 nM
O=C1/C(=C/c2ccc(C(F)(F)F)cc2)CCc2ccc(O)cc21	> 90%	> 10000 nM
O=C1/C(=C/c2ccccc2F)CCc2cc(O)ccc21	> 90%	1740 nM
O=C1/C(=C/c2cccc(Br)c2)CCc2ccc(O)cc21	> 90%	480 nM
O=C1/C(=C/c2ccccc2C(F)(F)F)CCc2ccc(O)cc21	> 90%	1020 nM
O=C1/C(=C/c2ccc(Cl)cc2)CCc2c(O)cccc21	< 90%	
O=C1/C(=C/c2ccccn2)CCc2c(O)cccc21	> 90%	740 nM
O=C1/C(=C/c2ccc(OC(F)(F)F)cc2)CCc2c(O)cccc21	< 90%	
O=C1/C(=C/c2ccccc2)CCc2ccc(O)cc21	> 90%	710 nM
O=C1/C(=C/c2ccccn2)CCc2cc(O)ccc21	> 90%	> 10000 nM
O=C1/C(=C/c2cccc(Cl)c2)CCc2ccc(O)cc21	> 90%	210 nM
O=C1/C(=C/c2ccc(OC(F)(F)F)cc2)CCc2cc(O)ccc21	> 90%	1350 nM
O=C1/C(=C/c2ccccc2F)CCc2c(O)cccc21	< 90%	
O=C1/C(=C/c2cccc(Cl)c2)CCc2c(O)cccc21	< 90%	
O=C1/C(=C/c2cccnc2)CCc2c(O)cccc21	> 90%	2950 nM
O=C1/C(=C/c2ccc(Br)cc2)CCc2c(O)cccc21	< 90%	
O=C1/C(=C/c2ccccc2O)CCc2c(O)cccc21	< 90%	
O=C1/C(=C/c2cccc(F)c2)CCc2cc(O)ccc21	> 90%	1230 nM
O=C1/C(=C/c2cccc(C(F)(F)F)c2)CCc2cc(O)ccc21	> 90%	180 nM
O=C1/C(=C/c2ccccc2Br)CCc2c(O)cccc21	> 90%	1240 nM
O=C1/C(=C/c2cccc(O)c2)CCc2cc(O)ccc21	> 90%	3510 nM

SMILES	viability at 10 µM [1]	IC50 (RAW264.7)
O=C1/C(=C/c2ccc(F)cc2)CCc2c(O)cccc21	< 90%	
O=C1/C(=C/c2ccccc2F)CCc2ccc(O)cc21	> 90%	1350 nM
O=C1/C(=C/c2ccccc2Cl)CCc2cc(O)ccc21	> 90%	1910 nM
O=C1/C(=C/c2ccccc2)CCc2cc(O)ccc21	> 90%	1320 nM
O=C1/C(=C/c2cccc(OC(F)(F)F)c2)CCc2ccc(O)cc21	< 90%	
O=C1/C(=C/c2cccnc2)CCc2cc(O)ccc21	> 90%	2030 nM
O=C1/C(=C/c2cccc(C(F)(F)F)c2)CCc2ccc(O)cc21	< 90%	
O=C1/C(=C/c2ccc(OC(F)(F)F)cc2)CCc2ccc(O)cc21	> 90%	980 nM
O=C1/C(=C/c2ccc(Cl)cc2)CCc2ccc(O)cc21	> 90%	1100 nM
O=C1/C(=C/c2cccc(Br)c2)CCc2cc(O)ccc21	> 90%	1140 nM
O=C1/C(=C/c2ccccc2OC(F)(F)F)CCc2c(O)cccc21	< 90%	
O=C1/C(=C/c2ccccc2O)CCc2ccc(O)cc21	< 90%	
O=C1/C(=C/c2ccc(C(F)(F)F)cc2)CCc2c(O)cccc21	< 90%	
O=C1/C(=C/c2ccccc2O)CCc2cc(O)ccc21	> 90%	550 nM
O=C1/C(=C/c2ccccn2)CCc2ccc(O)cc21	< 90%	
O=C1/C(=C/c2ccccc2OC(F)(F)F)CCc2ccc(O)cc21	> 90%	420 nM
O=C1/C(=C/c2cccc(O)c2)CCc2ccc(O)cc21	> 90%	810 nM
O=C1/C(=C/c2cccc(F)c2)CCc2c(O)cccc21	< 90%	
O=C1/C(=C/c2ccccc2C(F)(F)F)CCc2c(O)cccc21	> 90%	3830 nM
O=C1/C(=C/c2cccc(Cl)c2)CCc2cc(O)ccc21	> 90%	1750 nM
O=C1/C(=C/c2ccncc2)CCc2c(O)cccc21	> 90%	4170 nM
